Data on three molecules can be found in US20120101077A1, “AGGLOMERATE FORMULATIONS USEFUL IN DRY POWDER INHALERS” (Schering Corporation, priority 2009, published 2012).

Read-outs that look alike come from different tables or passages of the source.

Series [1] in a line: Particle size of micronized materials by HELOS laser diffraction. It is filed as physicochemical. The following applies: jet-milled micronized material. The procedure: Micronization of the drug and lactose were performed in-house using a jet-mill (Micron Master, The Jet Pulverizer Co., Inc, Moorestown, N.J.). […] Particle size measurements of the micronized materials were performed using a HELOS® (Sympatec Inc., Clausthal-Zellerfeld, Germany) laser diffraction system.

The conditions of series [2]: cited from earlier work.
The conditions of series [3]: cited from earlier work. The source holds these as a separate data set.
Series [4] can be described thus: Specific surface area of additional functional excipients. It is filed as physicochemical.

In the case of `C[C@@H]1C[C@H]2[C@@H]3CCC4=CC(=O)C=C[C@]4(C)[C@@]3(Cl)[C@@H](O)C[C@]2(C)[C@@]1(OC(=O)c1ccco1)C(=O)CCl` [Mometasone furoate, 9,21-Dichloro-11(beta), 17-dihydroxy-16(alpha)-methylpregna-1,4-diene-3,20-dione 17-(2 furoate)], the “average particle size (DV50)” value in series [1] came to 1.1 μm. In addition, the solubility result in series [2] (in acetone) is listed as “soluble”; in series [2] (in chloroform), “soluble”; in series [2] (in ethanol), “slightly soluble”; in series [2] (in isopropanol), “slightly soluble”; in series [2] (in methanol) it was “slightly soluble”; in series [2] (in tetrahydrofuran), “freely soluble”. Further, the solubility entry in series [2] (in water) is given as “practically insoluble”. Besides, the “partition coefficient between octanol and water” value in series [3] was “greater than 5000”.

In turn, magnesium stearate gave a specific surface area in series [4] of 8 m^2/g.

Regarding `OC[C@H]1O[C@@H](O[C@H]2[C@H](O)[C@@H](O)[C@@H](O)O[C@@H]2CO)[C@H](O)[C@@H](O)[C@H]1O` [micronized lactose, lactose anhydrous, NF], the “average particle size (DV50)” value in series [1] amounted to 2.0 μm.
